Assay results from paper PMC8335727 (Inorganic Chemistry, 2021).
Like-named read-outs stand apart in the source and are kept apart here.

Key:
Colo320 cells = test: Annexin-V-FITC/PI apoptosis induction assay (flow cytometry); format: cell-based, human; settings: 3 h induction
Method: To gain further insights into the cytotoxic behavior of the compounds, apoptosis induction by lead compounds HL^1 and [Cu(L^2)Cl] was investigated by a flow cytometry analysis of multidrug-resistant Colo320 cells stained with Annexin-V-FITC and propidium iodide (PI).
Colo320 cells were treated at the indicated concentration of the drugs. The dual parametric dot plots that combine the Annexin-V (FL1) and PI (FL3) fluorescence show the viable cell population in the lower-left quadrant Annexin-V–/PI– (Q4), the early apoptotic cells in the lower-right quadrant Annexin-V+/PI– (Q3), and the late apoptotic and necrotic cells in the upper-right quadrant Annexin-V+/PI+ (Q2). […]
2.5.3. Mechanisms of cell death: assay for apoptosis induction
The assay was carried out for selected compounds using an Annexin V-FITC Apoptosis Detection
Kit (Cat. No. APOAF-50TST) from Sigma according to the manufacturer's instructions. The
concentration of the Colo320 cell suspension was adjusted to approximately 0.5 × 10^6 cells per
mL in RPMI medium and the cell suspension was distributed in 1 mL aliquots into a 24-well plate,
and then incubated overnight at 37 °C and 5% CO2. On the following day, the medium was
removed and replaced by 1 mL RPMI medium containing the compounds except the control
samples. Colo320 cells were incubated in the presence of the compounds at 4 and 8 μM (HL1), or
0.25 and 0.50 μM (Cu(HL2)Cl2) in the 24-well plate at 37 °C for 3 h, and 12H-
controls. After the incubation period the samples were washed with PBS and fresh RPMI medium
was added to the samples. The cells were incubated overnight at 37 °C and 5% CO2. The next day,
200 μL 0.25% Trypsin (Trypsin-Versen) was added to the samples until cells appeared detached
followed by the addition of 400 μL of RPMI medium supplemented with 10% bovine serum. The
cells were collected in Eppendorf tubes and centrifuged at 2000 g for 2 min. The harvested cells
were resuspended in fresh serum free RPMI medium culture medium. After this step, the apoptosis
assay was carried out according to the instructions of the manufacturer. The fluorescence was
analyzed immediately using a ParTec CyFlow flow cytometer (Partec GmbH, Münster, Germany). […]

mouse R2 RNR protein = target: T1, mouse R2 RNR protein (Mus musculus, UniProt P11157); test: Tyrosyl radical reduction in mouse R2 RNR protein (EPR); format: biochemical; settings: for effect on the tyrosyl radical content in the presence of DTT / effect on the tyrosyl radical in the absence of DTT: 20 μM compound; for effect on the tyrosyl radical in the absence of DTT: no DTT
T1 construct: made in house
T1 sequence (P11157 1-390): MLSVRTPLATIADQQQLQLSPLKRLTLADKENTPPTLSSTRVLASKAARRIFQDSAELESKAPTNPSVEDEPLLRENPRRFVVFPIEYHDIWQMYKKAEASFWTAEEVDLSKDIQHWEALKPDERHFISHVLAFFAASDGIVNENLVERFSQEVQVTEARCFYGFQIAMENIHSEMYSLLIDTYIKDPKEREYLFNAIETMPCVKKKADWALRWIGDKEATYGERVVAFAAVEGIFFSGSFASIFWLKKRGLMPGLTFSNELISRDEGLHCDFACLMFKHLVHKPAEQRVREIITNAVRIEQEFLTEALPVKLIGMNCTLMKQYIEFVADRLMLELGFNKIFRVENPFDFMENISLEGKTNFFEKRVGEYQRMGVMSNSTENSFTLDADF
Method: The time-dependent tyrosyl radical reduction in mR2 RNR by equimolar concentrations of TSCs and their respective copper(II) complexes, under reducing conditions, is shown in Figure 15. […] The favorable impact of the copper(II) coordination on the HL^2 inhibitory activity is quite obvious, when the ability to quench the tyrosyl radical by HL^2 is compared to that of 2′.
The samples contained 20 μM mR2 in 50 mM HEPES buffer, pH 7.60/100 mM KCl, 20 μM compound in 1% (v/v) DMSO/H2O, and 2 mM DTT. […]
2.6. Tyrosyl radical reduction in mouse R2 RNR protein
The tyrosyl radical reduction in mR2 protein by HL1, HL2, HL3, Cu(HL1)Cl2, [Cu(L2)Cl],
Cu(HL3)Cl2, HL1a’, HL1a’’, and HL2c´·CH3COOH was measured by EPR spectroscopy at 30 K,
on a Bruker Elexsys II E540 EPR spectrometer with an Oxford Instruments ER 4112HV helium
cryostat, as described previously.12,13 mR2 protein was expressed, purified, and iron -reconstituted
as described previously, 14 and passed through a 5 mL HiTrap desalting column (GE Healthcare)
(§1) 0.76 tyrosyl radical/polypeptide. Samples containing 20 µM mR2 in 50 mM HEPES buffer, pH
(§2) 7.50/100 mM NaCl, and 20 µM respective compound in 1% (v/v) DMSO/H2O, and 2 mM
dithiothreitol (DTT) were incubated for indicated times and quickly frozen in cold isopentane. The
same samples were used for repeated incubations at room temperature. […]
Furthermore, the intrinsic reaction coordinate (IRC) analysis was
performed to authenticate that the transition state pertains to the desired reaction coordinate. The
IRC calculations were done at the B3LYP/6-311++G(d,p) level of theory. Molecular orbitals were
drawn using Molekel software.17
3. Schemes for assignment of resonances in HL1 – HL3 and their isomers
Scheme S1. The atom numbering for the assignment of resonances in HL1 – HL3.
(1 picture or pasted object on this page, not shown here)

Colo205 = test: MTT cytotoxicity assay, Colo205; format: cell-based; settings: Homo sapiens, COLO 205, 72 h of exposure
Method: (§3) The in vitro cytotoxicity of the TSCs HL^1–HL^3, copper(II) complexes Cu(HL^1)Cl2, [Cu(L^2)Cl], and Cu(HL^3)Cl2, and oxidized TSCs HL^1a′, HL^1a″, and HL^2c′·CH3COOH was tested in the doxorubicin-sensitive Colo205 and the multidrug-resistant Colo320 human colonic adenocarcinoma cell lines as well as in normal human embryonal lung fibroblast cells (MRC-5) by the colorimetric MTT assay. […]
(§4) 2.5. In vitro cell studies
(§5) 2.5.1. Cell lines and culture conditions
(§6) All cell culture reagents were obtained from Sigma-Aldrich and plastic ware from Sarstedt
(§7) (Germany). Doxorubicin-sensitive human colonic Colo 205 and multidrug resistant
(§8) Colo 320/MDR-LRP adenocarcinoma cell lines were purchased from LGC Promochem,
(§9) Teddington, UK. The cells were cultured in Roswell Park Memorial Institute (RPMI) 1640
(§10) medium supplemented with 10% heat-inactivated fetal bovine serum, 2 mM L-glutamine, 1 mM
(§11) Na-pyruvate and 100 mM Hepes. The cell lines were incubated at 37°C, in a 5% CO2, 95% air
(§12) MRC-5 human embryonal lung fibroblast cell line (ATCC CCL-171) was purchased from LGC
(§13) Promochem, Teddington, UK. The cell line was cultured in Eagle’s Minimal Essential Medi um
(§14) (EMEM, containing 4.5 g/L glucose) supplemented with a non-essential amino acid mixture, a
(§15) selection of vitamins and 10% heat-inactivated fetal bovine serum. The cells were incubated at
(§16) 37°C, in a 5% CO2, 95% air atmosphere. All cell lines were detached with Trypsin-Versene
(§17) (EDTA) solution for 5 min at 37 °C.
(§18) The tested compounds were dissolved in DMSO using 10 mM concentration. Then stock solutions
(§19) were diluted in complete culture medium in 96-well microtiter plates, and two-fold serial dilutions
(§20) of compounds were prepared in 100 µL of RPMI 1640, horizontally. The semi-adherent colonic
(§21) adenocarcinoma cells were treated with Trypsin -Versene (EDTA) solution. They were adjusted to
(§22) a density of 1×10^4 cells in 100 µL of RPMI 1640 medium, and were added to each well, with the
(§23) exception of the medium control wells. The final volume of the wells containing compounds and
(§24) cells was 200 µL. The culture were incubated at 37 °C for 72 h; at the end of the incubation period,
(§25) 20 µL of MTT solution (from a stock solution of 5 mg/mL) were added to each well. After
(§26) incubation at 37 °C for 4 h, 100 µL of SDS solution (10% in 0.01 M HCI) were added to each well
(§27) and the plates were further incubated at 37 °C overnight. The cell growth was determined using
(§28) both methods by measuring the optical density (OD) at 450 nm (ref. 620 nm) with a Multiscan EX
(§29) ELISA reader. Inhibition of the cell growth (expressed as IC 50: inhibitory concentration that
(§30) reduces by 50% the growth of the cells exposed to the tested compounds) was determined from
(§31) the sigmoid curve where 100 – ((ODsample ‒ ODmedium control)/(ODcell control ‒ ODmedium control)) × 100
(§32) values were plotted against the logarithm of compound concentrations. […]
as §1, §2

[1] = cited from earlier work
[2] = system: SW480, MES-SA, MES-SA/Dx5, HL60, 41M, SK-BR-3; set-up: method as in PMID 32336116, PMID 22189939, PMID 31250199; settings: several human cancer cells; ref [36],[58],[80]; read-out: IC50 values reported; cited from earlier work
Colo320 = test: MTT cytotoxicity assay, Colo320; format: cell-based; settings: Homo sapiens, COLO 320, 72 h of exposure
Method: as §3, §4, §5, §6, §7, §8, §9, §10, §11, §12, §13, §14, §15, §16, §17, §18, §19, §20, §21, §22, §23, §24, §25, §26, §27, §28, §29, §30, §31, §32, §1, §2

MRC-5 = test: MTT cytotoxicity assay, MRC-5; format: cell-based; settings: Homo sapiens, MRC5, 72 h of exposure
Method: as §4, §5
All cell culture reagents were obtained from Sigma-Aldrich and plastic ware from Sarstedt […]
as §12, §13, §14, §15, §16, §17, §18, §19, §20, §21, §22, §23, §24, §25, §26, §27, §28, §29, §30, §31, §32

## N.N.[Cl][Pt][Cl] [cisplatin, reference compound]
Colo320 cells; 15 µM
  Cell death % Q1: 1.64%
  Early apoptosis % Q3: 1.68%
  Late apoptosis and necrosis % Q2: 2.24%
Colo320 cells; 30 µM
  Cell death % Q1: 0.79%
  Early apoptosis % Q3: 4.90%
  Late apoptosis and necrosis % Q2: 4.07%

## NC(=S)N/N=C/c1ncccc1N [triapine, 3-aminopyridine-2-carboxaldehyde TSC, reference compound]
Mouse R2 RNR protein; equimolar 20 μM compound and mR2, 2 mM DTT
  mR2 inhibition potency order: HL^1 ≈ triapine > HL^3 > HL^2
Colo205
  IC50: 3.34 ± 0.12 µM
[1]; pH 7.4
  log D7.4: +0.85
[2]
  IC50: 0.4 to 2.6 µM
Colo320
  IC50: 4.21 ± 0.46 µM

## NC(=S)NN=Cc1ccccn1 [FTSC, 2-formylpyridine TSC]
[1]; ref [67]
  log D7.4: +0.73
[2]
  IC50: 1.9 to 10.6 µM

## Cc1cc(Nc2nnc(-c3ccccn3)s2)cc(C)c1O [HL^1a′]
Mouse R2 RNR protein; 2 mM DTT
  effect on the tyrosyl radical content in the presence of DTT: cause an increase in the radical content
Mouse R2 RNR protein
  effect on the tyrosyl radical in the absence of DTT: do not have an effect
Colo205
  IC50: > 25 µM
MRC-5
  IC50: > 25 µM
Colo320
  IC50: > 25 µM

## CC1=CC(=Nc2nnc(-c3ccccn3)s2)C=C(C)C1=O [HL^1a″]
Mouse R2 RNR protein; 2 mM DTT
  effect on the tyrosyl radical content in the presence of DTT: cause an increase in the radical content
Mouse R2 RNR protein
  effect on the tyrosyl radical in the absence of DTT: do not have an effect
Colo205
  IC50: > 25 µM
MRC-5
  IC50: > 25 µM
Colo320
  IC50: > 25 µM

## c1ccc2c(c1)Nc1c(ccc3ccccc13)S2 [M627, 12H-Benzophenothiazine, reference compound]
Colo320 cells; 10 µM
  Cell death % Q1: 4.59%
  Early apoptosis % Q3: 12.4%
  Late apoptosis and necrosis % Q2: 31.5%
Colo320 cells; 20 µM
  Cell death % Q1: 7.85%
  Early apoptosis % Q3: 11.1%
  Late apoptosis and necrosis % Q2: 26.1%
